In patent US20180161314A1, “Methods for Treating Hyperuricemia and Related Diseases” (Ardea Biosciences, Inc., priority 2010, published 2018):

Assays:
[1] = target: T1, URAT1 (Homo sapiens, UniProt Q96S37); conditions: in vitro; cited from earlier work
T1 sequence (Q96S37 1-553): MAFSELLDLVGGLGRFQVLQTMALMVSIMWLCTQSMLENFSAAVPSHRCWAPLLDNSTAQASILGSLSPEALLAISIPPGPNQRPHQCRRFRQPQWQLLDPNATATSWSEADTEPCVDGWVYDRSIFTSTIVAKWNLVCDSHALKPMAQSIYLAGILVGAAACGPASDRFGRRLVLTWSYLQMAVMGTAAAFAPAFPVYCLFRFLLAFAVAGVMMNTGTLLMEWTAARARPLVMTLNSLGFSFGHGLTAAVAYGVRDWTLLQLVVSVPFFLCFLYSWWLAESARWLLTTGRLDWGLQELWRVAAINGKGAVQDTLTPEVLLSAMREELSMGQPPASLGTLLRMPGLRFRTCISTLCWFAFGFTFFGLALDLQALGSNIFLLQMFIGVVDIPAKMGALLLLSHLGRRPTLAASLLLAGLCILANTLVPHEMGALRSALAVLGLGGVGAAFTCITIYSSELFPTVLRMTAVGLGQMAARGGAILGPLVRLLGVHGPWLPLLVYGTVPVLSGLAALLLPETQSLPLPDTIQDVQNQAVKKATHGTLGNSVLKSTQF

[2] = target: T2, PNP (Homo sapiens, UniProt P00491); conditions: cited from earlier work
T2 sequence (P00491 1-289): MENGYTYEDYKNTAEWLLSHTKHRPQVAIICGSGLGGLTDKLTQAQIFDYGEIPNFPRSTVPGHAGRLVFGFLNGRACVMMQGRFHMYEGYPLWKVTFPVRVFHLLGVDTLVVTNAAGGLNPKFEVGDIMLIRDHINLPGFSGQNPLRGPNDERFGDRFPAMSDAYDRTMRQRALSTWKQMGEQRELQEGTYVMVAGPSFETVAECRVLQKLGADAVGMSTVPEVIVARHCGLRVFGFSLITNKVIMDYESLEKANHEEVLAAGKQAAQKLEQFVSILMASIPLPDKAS

[3] = in clinical studies; cited from earlier work
[4] = test system: gout patients with hyperuricemia; assay: Febuxostat alone and in combination with drug 1, open-label study in gout patients with hyperuricemia (Examples 23, 24); type: in vivo, human; conditions: for Mean absolute sUA reduction / Mean sUA % change / Mean sUA level: ± SE
Protocol: Study Objectives • To measure the effect of febuxostat alone and in combination with drug 1 on serum urate concentrations. • To evaluate the safety and tolerability of drug 1 in combination with febuxostat.
The study is open-label in gout patients with hyperuricemia, involving 2 panels of ˜10-12 patients per panel. The panels may be enrolled simultaneously.
Panel 1 receives a once-daily dose of febuxostat 40 mg with ascending doses of drug 1. Panel 2 receives a once-daily dose of febuxostat 80 mg with ascending doses of drug 1.
• Day −14 to Day 28: colchicine prophylaxis; or • Day −7 to Day 28: colchicine prophylaxis (for patients not washing out from ULT) • Days 1-7: febuxostat 40 mg qd • Days 8-14: febuxostat 40 mg qd+drug 1 400 mg qd • Days 15-21: febuxostat 40 mg qd+drug 1 600 mg qd
• Day −14 to Day 28: colchicine prophylaxis; or • Day −7 to Day 28: colchicine prophylaxis (for patients not washing out from ULT) • Days 1-7: febuxostat 80 mg qd • Days 8-14: febuxostat 80 mg qd+drug 1 400 mg qd • Days 15-21: febuxostat 80 mg qd+drug 1 600 mg qd
Gout patients on a urate lowering therapy (ULT), have previously taken a ULT or who have never taken a ULT are eligible to participate. Screening procedures to determine patient eligibility are performed within approximately 21 days of the first dose of study drug (Day 1). Subjects currently on ULT wash-out for approximately 14 days before Day 1, and begin colchicine (Colcrys® 0.6 mg qd, URL Pharma) as prophylaxis for gout flares. During the washout period, subjects who have discontinued ULT may have their sUA re-tested (at least 7 days after washing out) to confirm eligibility. Subjects not on ULT begin colchicine administration at least 7 days prior to Day 1. […] Patients intolerant of colchicine during the screening period are considered screen failures and not enrolled. Prophylactic administration of colchicine continues for 7 days after the last dose of study medication.
Eligible patients report to the study center early morning on Days −1, 7, 14, and 21 (or the afternoon/evening the day before). Serial blood samples are collected on Days −1, 7, 14, and 21. 24-hour urine collection is obtained on Days −1, 7, 14, and 21. Spot urine assessments also obtained on Day −1.
Study medication is administered to each patient and taken orally every morning with approximately 240 mL of water, at approximately the same time of the morning every day, and approximately 30 minutes after finishing a full breakfast (approximately 650 Kcal and 35% fat); the breakfast is standardized on Days −1 to 21.
Inclusion Criteria • Patient is male or post-menopausal or surgically sterile female. • Patient is 18-80 years of age, inclusive. • Patient meets one or more criteria for the diagnosis of gout as per the American Rheumatism Association (ARA) Criteria for the Classification of Acute Arthritis of Primary Gout (Appendix C). • Patient sUA≥8 mg/dL at screening. • Patient willing and able to give informed consent and adhere to visit/protocol schedules • No clinically relevant abnormalities in blood pressure (BP), heart rate (HR), body temperature and respiratory rate as per Investigator's judgment.
Subject urate serum levels are recorded, and any safety concerns assessed (by adverse events, clinical laboratory test results, vital signs, 12-lead ECGs, and physical examinations). […] Urate serum concentrations are evaluated for treatment- and/or time-dependent changes relative to baseline (Day −1), and may be expressed both in standard units (mg/dL) and as changes from baseline (e.g., percent change, absolute change, maximal change, and time or day of maximal change).
Drug 1 was tested according to the clinical trial protocol described in Example 23.
Serum urate levels were measured and absolute and % reduction levels from baseline calculated. Mean levels, mean absolute reductions (mg/dL, all data SE) and % change results are presented in the table below and in FIGS. 10 and 11. […]

[5] = FBX 40 mg alone, FBX 40 mg + Drug 1 400 mg
[6] = FBX 40 mg qd alone days 1-7, FBX 40 mg + Drug 1 400 mg qd days 8-14
[7] = FBX 80 mg alone, FBX 80 mg + Drug 1 400 mg
[8] = FBX 80 mg qd alone days 1-7, FBX 80 mg + Drug 1 400 mg qd days 8-14

Compound | Effect on the URAT1-mediated uptake of uric acid [1] | Inhibition of PNP [2] | Route of excretion [3] | % Response rate for sUA <3 mg/dL [4, 5] | % Response rate for sUA <4 mg/dL [4, 5] | % Response rate for sUA <5 mg/dL [4, 5] | % Response rate for sUA <6 mg/dL [4, 5] | Mean absolute sUA reduction [4, 6] | Mean sUA % change [4, 6] | Mean sUA level [4, 6] | % Response rate for sUA <3 mg/dL [4, 7] | % Response rate for sUA <4 mg/dL [4, 7] | % Response rate for sUA <5 mg/dL [4, 7] | % Response rate for sUA <6 mg/dL [4, 7] | Mean absolute sUA reduction [4, 8] | Mean sUA % change [4, 8] | Mean sUA level [4, 8]
O=C(O)CSc1nnc(Br)n1-c1ccc(C2CC2)c2ccccc12 [Drug 1, Sodium 2-(5-bromo-4-(4-cyclopropylnaphthalen-1-yl)-4H-1,2,4-triazol-3-ylthio)acetate] | concentration-dependent inhibitory effect | does not significantly inhibit | preferentially excreted through the kidney, reaching high concentrations in urine | – | – | – | – | – | – | – | – | – | – | – | – | – | –
Cc1nc(-c2ccc(OCC(C)C)c(C#N)c2)sc1C(=O)O [Febuxostat, 2-(3-Cyano-4-isobutoxyphenyl)-4-methyl-1,3-thiazole-5-carboxylic acid, reference compound] | – | – | – | 0% | 0% | 17% | 67% | -3.2 ± 0.21 mg/dL | −35.7 ± 2.0% | 5.6 ± 0.24 mg/dL | 0% | 0% | 22% | 56% | -4.6 ± 0.51 mg/dL | −44.2 ± 3.5% | 5.7 ± 0.29 mg/dL
